{"source": "patent US20260226071A1", "about": "“2, 4-DIANILINOPYRIMIDINE-BASED AURORA-A KINASE SELECTIVE DEGRADATION INDUCING COMPOUNDS” (UPPTHERA, INC., priority 2023, published 2026)", "target": "T1, Aurora kinase A (AURKA) (Homo sapiens, UniProt O14965)", "T1 construct": "endogenous in cells; host or cells: HeLa LgBit (AURKA-HiBit KI), CRISPR/Cas9 knock-in at the endogenous AURKA locus", "T1 sequence (O14965 1-403)": "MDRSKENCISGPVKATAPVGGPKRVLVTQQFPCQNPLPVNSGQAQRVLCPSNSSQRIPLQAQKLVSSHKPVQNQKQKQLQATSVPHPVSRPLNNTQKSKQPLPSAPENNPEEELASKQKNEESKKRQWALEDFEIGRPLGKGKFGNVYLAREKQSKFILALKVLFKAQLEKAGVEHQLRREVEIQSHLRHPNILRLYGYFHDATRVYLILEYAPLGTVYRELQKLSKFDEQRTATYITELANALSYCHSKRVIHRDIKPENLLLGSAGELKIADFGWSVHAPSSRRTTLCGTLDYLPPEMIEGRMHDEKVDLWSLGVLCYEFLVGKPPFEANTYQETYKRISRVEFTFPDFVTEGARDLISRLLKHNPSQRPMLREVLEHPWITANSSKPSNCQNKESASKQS", "assay": "Luciferase assay for AURKA in HeLa LgBit (AURKA-HiBit KI) cell line", "format": "cell-based", "conditions": "HeLa LgBit (AURKA-HiBit KI) cells, measured after 12 hours", "excerpt": "HeLa cell lines that stably express LgBit were constructed via LgBit vector transfection. Then, donor DNA and guide RNA for insertion of HiBit amino acid sequence at C-terminus of inherent Aurora kinase A (AURKA) genes were designed and constructed. Thereafter, they were transfected into the cell lines with CRISPR/Cas9 expression vector system. HiBit gene knock-in single cells were selected, passaged and used for the experiments.\nFor cell culture, DMEM (Gibco, Cat. No. 11995-065; Lot. No. 2562497), FBS (Gibco, Cat. No. 16000-044; Lot. No. 2511328P), Penicillin/Streptomycin (PS) (Gibco, Cat. No. 15140-122; Lot. No. 2585636), 90 mm^2 cell culture dish (SPL, Cat. No. 20100), 96-well white plate, PBS pH 7.4 (Gibco, […]), TrypLE™ Express (Gibco, Cat. No. 12605-010; Lot. No. 2522525), counting chamber (hematocytometer) (Hirschmann, Cat. No. 8100204; Lot. No. 8021087) and 0.4% Trypan Blue solution (DYNEBIO, Cat. No. CBT3710; Lot. No. 20231017) were used. Cells were cultured in DMEM supplemented with 10% FBS and 1% PS and incubated in CO2 incubator (Thermo, Cat. No. 4111) at 37° C., 5% CO2 condition.\nHeLa LgBit (AURKA-HiBit KI) cell lines were cultured in 90 mm^2 cell culture dish, and 3×10^4 cells in […] of total medium volume were seeded and incubated for 18 hours in CO2 incubator. Then, Eudurazine (Promega, Cat. No. N247B; Lot. No. 495218) was added to each well to make up 1% of the total volume, followed by further incubation for 2 hours in CO2 incubator.\nThe present compounds were fully dissolved in DMSO (Sigma-Aldrich Cat. No. D2438, Lot. No. RNBL7287) and 10 nM or 100 nM of total concentration were used in the experiment. After adding the compounds in each well of 96-well white plate, the plate was placed in the plate reader (BMG Labtech, CLARIOstar Plus) for real-time analysis. The wavelength for analysis was set to […], and the luminescence value was measured after 12 hours. The luminescence value was analyzed through an Excel program.", "data": [{"smiles": "O=C1CCC(c2ccc(N3CCN(CCN4CC[C@H](NC(=O)c5ccc(Nc6ncc(F)c(Nc7ccc(C(=O)Nc8ccccc8Cl)cc7)n6)cc5)C4)CC3)cc2)C(=O)N1", "note": "(stereo partly drawn) [Compound 68, N-(2-chlorophenyl)-4-((2-((4-(((3S)-1-(2-(4-(4-(2,6-dioxopiperidin-3-yl)phenyl)piperazin-1-yl)ethyl)pyrrolidin-3-yl)carbamoyl)phenyl)amino)-5-fluoropyrimidin-4-yl)amino)benzamide]", "values": [{"measurement": "luminescence value (Level)", "setting": "10 nM compound", "value": "B (B is 0.3 to 0.5)"}, {"measurement": "luminescence value (Level)", "setting": "100 nM compound", "value": "A (A is <0.2)"}]}, {"smiles": "O=C1CCC(Nc2ccc(N3CC4CC(C3)N(C3CCN(C(=O)c5ccc(Nc6ncc(F)c(Nc7ccc(C(=O)Nc8ccccc8Cl)cc7)n6)cc5)CC3)C4)cc2)C(=O)N1", "note": "(centres unmarked) [Compound 28, N-(2-chlorophenyl)-4-((2-((4-(4-(3-(4-((2,6-dioxopiperidin-3-yl)amino)phenyl)-3,6-diazabicyclo[3.2.1]octan-6-yl)piperidine-1-carbonyl)phenyl)amino)-5-fluoropyrimidin-4-yl)amino)benzamide]", "values": [{"measurement": "luminescence value (Level)", "setting": "10 nM compound", "value": "C (C is 0.5 to 0.7)"}, {"measurement": "luminescence value (Level)", "setting": "100 nM compound", "value": "B (B is 0.2 to 0.4)"}]}, {"smiles": "O=C1CCC(c2ccc(C#CC3CCN(C4CCN(C(=O)Cc5ccc(Nc6ncc(F)c(Nc7ccc(C(=O)Nc8ccccc8Cl)cc7)n6)cc5)CC4)CC3)cc2)C(=O)N1", "note": "(centres unmarked) [Compound 15, N-(2-chlorophenyl)-4-((2-((4-(2-(4-((4-(2,6-dioxopiperidin-3-yl)phenyl)ethynyl)-[1,4′-bipiperidin]-1′-yl)-2-oxoethyl)phenyl)amino)-5-fluoropyrimidin-4-yl)amino)benzamide]", "values": [{"measurement": "luminescence value (Level)", "setting": "10 nM compound", "value": "D (D is 0.7 to 0.8)"}, {"measurement": "luminescence value (Level)", "setting": "100 nM compound", "value": "B (B is 0.2 to 0.4)"}]}, {"smiles": "Cn1nc(C2CCC(=O)NC2=O)c2cc(F)c(N3CCN(CCC4CCN(NC(=O)c5ccc(Nc6ncc(F)c(Nc7ccc(C(=O)Nc8ccccc8Cl)cc7)n6)cc5)CC4)CC3)cc21", "note": "(centres unmarked) [Compound 107, N-(2-chlorophenyl)-4-((2-((4-((4-(2-(4-(3-(2,6-dioxopiperidin-3-yl)-5-fluoro-1-methyl-1H-indazol-6-yl)piperazin-1-yl)ethyl)piperidin-1-yl)carbamoyl)phenyl)amino)-5-fluoropyrimidin-4-yl)amino)benzamide]", "values": [{"measurement": "luminescence value (Level)", "setting": "10 nM compound", "value": "A (A is <0.3)"}, {"measurement": "luminescence value (Level)", "setting": "100 nM compound", "value": "A (A is <0.2)"}]}, {"smiles": "O=C1CCC(c2ccc(N3CCC4(CC3)CC(C3CCN(NC(=O)c5ccc(Nc6ncc(F)c(Nc7ccc(C(=O)Nc8ccccc8Cl)cc7)n6)cc5)CC3)C4)cc2)C(=O)N1", "note": "(centres unmarked) [Compound 60, N-(2-chlorophenyl)-4-((2-((4-((4-(7-(4-(2,6-dioxopiperidin-3-yl)phenyl)-7-azaspiro[3.5]nonan-2-yl)piperidin-1-yl)carbamoyl)phenyl)amino)-5-fluoropyrimidin-4-yl)amino)benzamide]", "values": [{"measurement": "luminescence value (Level)", "setting": "10 nM compound", "value": "D (D is 0.7 to 0.8)"}, {"measurement": "luminescence value (Level)", "setting": "100 nM compound", "value": "B (B is 0.2 to 0.4)"}]}, {"smiles": "O=C1CCC(c2ccc(N3CCN(CCC4CCN(NC(=O)c5ccc(Nc6ncc(F)c(Nc7ccc(C(=O)NC8CCCCC8)cc7)n6)cc5)CC4)CC3)cc2)C(=O)N1", "note": "(centres unmarked) [Compound 92, N-cyclohexyl-4-((2-((4-((4-(2-(4-(4-(2,6-dioxopiperidin-3-yl)phenyl)piperazin-1-yl)ethyl)piperidin-1-yl)carbamoyl)phenyl)amino)-5-fluoropyrimidin-4-yl)amino)benzamide]", "values": [{"measurement": "luminescence value (Level)", "setting": "10 nM compound", "value": "B (B is 0.3 to 0.5)"}, {"measurement": "luminescence value (Level)", "setting": "100 nM compound", "value": "A (A is <0.2)"}]}, {"smiles": "O=C1CCC(NC(=O)c2ccc(N3CCC(CN4CCN(C(=O)Cc5ccc(Nc6ncc(F)c(Nc7ccc(C(=O)Nc8ccccc8Cl)cc7)n6)cc5)CC4)CC3)cc2)C(=O)N1", "note": "(centres unmarked) [Compound 46, N-(2-chlorophenyl)-4-((2-((4-(2-(4-((1-(4-((2,6-dioxopiperidin-3-yl)carbamoyl)phenyl)piperidin-4-yl)methyl)piperazin-1-yl)-2-oxoethyl)phenyl)amino)-5-fluoropyrimidin-4-yl)amino)benzamide]", "values": [{"measurement": "luminescence value (Level)", "setting": "10 nM compound", "value": "C (C is 0.5 to 0.7)"}, {"measurement": "luminescence value (Level)", "setting": "100 nM compound", "value": "B (B is 0.2 to 0.4)"}]}, {"smiles": "COc1cc(C(=O)NN2CCC(CCN3CCN(c4ccc(C5CCC(=O)NC5=O)cc4)CC3)CC2)ccc1Nc1ncc(F)c(Nc2ccc(C(=O)Nc3ccccc3Cl)cc2)n1", "note": "(centres unmarked) [Compound 84, 4-((4-((4-((2-chlorophenyl)carbamoyl)phenyl)amino)-5-fluoropyrimidin-2-yl)amino)-N-(4-(2-(4-(4-(2,6-dioxopiperidin-3-yl)phenyl)piperazin-1-yl)ethyl)piperidin-1-yl)-3-methoxybenzamide]", "values": [{"measurement": "luminescence value (Level)", "setting": "10 nM compound", "value": "C (C is 0.5 to 0.7)"}, {"measurement": "luminescence value (Level)", "setting": "100 nM compound", "value": "B (B is 0.2 to 0.4)"}]}, {"smiles": "O=C1CCC(c2ccc(N3CCN(CCN4CC[C@@H](NC(=O)c5ccc(Nc6ncc(F)c(Nc7ccc(C(=O)Nc8ccccc8Cl)cc7)n6)cc5)C4)CC3)cc2)C(=O)N1", "note": "(stereo partly drawn) [Compound 64, N-(2-chlorophenyl)-4-((2-((4-(((3R)-1-(2-(4-(4-(2,6-dioxopiperidin-3-yl)phenyl)piperazin-1-yl)ethyl)pyrrolidin-3-yl)carbamoyl)phenyl)amino)-5-fluoropyrimidin-4-yl)amino)benzamide]", "values": [{"measurement": "luminescence value (Level)", "setting": "10 nM compound", "value": "B (B is 0.3 to 0.5)"}, {"measurement": "luminescence value (Level)", "setting": "100 nM compound", "value": "A (A is <0.2)"}]}, {"smiles": "O=C1CCC(c2ccc(N3CCC(CN4CCC(CNC(=O)c5ccc(Nc6ncc(F)c(Nc7ccc(C(=O)Nc8ccccc8Cl)cc7)n6)cc5)CC4)CC3)cc2)C(=O)N1", "note": "(centres unmarked) [Compound 62, N-(2-chlorophenyl)-4-((2-((4-(((1-((1-(4-(2,6-dioxopiperidin-3-yl)phenyl)piperidin-4-yl)methyl)piperidin-4-yl)methyl)carbamoyl)phenyl)amino)-5-fluoropyrimidin-4-yl)amino)benzamide]", "values": [{"measurement": "luminescence value (Level)", "setting": "10 nM compound", "value": "B (B is 0.3 to 0.5)"}, {"measurement": "luminescence value (Level)", "setting": "100 nM compound", "value": "A (A is <0.2)"}]}]}
